Laboratory results: patent US8481732B2 (Incyte Corporation, priority 2009, dated 2013)

Target: T1, histamine H4 receptor (Homo sapiens, UniProt Q9H3N8)
T1 construct: expressed in transfected cells; host or cells: HEK293SFM cells (membrane preparation)
Assay: H4 Membrane Binding Assay (3H-Histamine displacement)
Conditions: membranes of recombinant HEK293SFM cells, 10 nM 3H-Histamine, 1.5 hr at room temperature
How it was run: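 Radioligand is [3H]-histamine; 1000× unlabeled ligand sets nonspecific binding. Receptor source: membrane pellets from HEK293SFM cells carrying human H4 or other histamine subtypes (human H1–H3, mouse H4), in 50 mM Tris-HCl pH 7.5. Filtration through PEI-treated GF/B filters, then scintillation counting.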

T1 sequence (Q9H3N8 whole entry): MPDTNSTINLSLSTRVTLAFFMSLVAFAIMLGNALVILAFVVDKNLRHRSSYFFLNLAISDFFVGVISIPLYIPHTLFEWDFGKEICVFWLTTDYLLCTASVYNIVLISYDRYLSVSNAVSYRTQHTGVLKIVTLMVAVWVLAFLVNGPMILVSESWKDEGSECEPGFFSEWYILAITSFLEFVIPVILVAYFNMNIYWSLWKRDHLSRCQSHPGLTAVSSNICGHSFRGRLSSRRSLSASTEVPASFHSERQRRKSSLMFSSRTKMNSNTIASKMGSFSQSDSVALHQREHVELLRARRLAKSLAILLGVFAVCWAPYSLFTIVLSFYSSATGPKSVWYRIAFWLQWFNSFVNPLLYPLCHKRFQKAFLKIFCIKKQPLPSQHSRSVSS

Row | Compound | IC50 [µM]
1 | CN1CCN(c2nc(N)nc3cc(C(=O)NC4CCCc5ccc(OCc6cccc(C#N)c6)cc54)ccc23)CC1 (stereo not shown) [Example 202, 2-Amino-N-(7-(3-cyanobenzyloxy)-1,2,3,4-tetrahydronaphthalen-1-yl)-4-(4-methylpiperazin-1-yl)quinazoline-7-carboxamide] | 0.0092
2 | Cc1cccnc1N1CCC(NC(=O)N2CCc3ccc(-c4cc(N5CCN(C)CC5)nc(N)n4)cc3C2)CC1 [Example 42, 7-[2-Amino-6-(4-methylpiperazin-1-yl)pyrimidin-4-yl]-N-[1-(3-methylpyridin-2-yl)piperidin-4-yl]-3,4-dihydroisoquinoline-2(1H)-carboxamide] | 0.103
3 | COC(=O)N1CCC(CC(=O)N2CCc3ccc(-c4cc(N5CCN(C)CC5)nc(N)n4)cc3C2)C1 (stereo not shown) [Example 118, Methyl 3-{2-[7-[2-amino-6-(4-methylpiperazin-1-yl)pyrimidin-4-yl]-3,4-dihydroisoquinolin-2(1H)-yl]-2-oxoethyl}pyrrolidine-1-carboxylate] | 0.178
4 | CN1CCN(c2cc(-c3ccc4c(c3)CN(C(=O)NC3CCc5ccccc53)CC4)nc(N)n2)CC1 (stereo not shown) [Example 82, 7-[2-Amino-6-(4-methylpiperazin-1-yl)pyrimidin-4-yl]-N-(2,3-dihydro-1H-inden-1-yl)-3,4-dihydroisoquinoline-2(1H)-carboxamide] | 0.067
5 | CN1CCN(c2cc(-c3ccc4c(c3)CN(C(=O)Cc3ccc(N5CCCC5)nc3)CC4)nc(N)n2)CC1 [Example 128, 4-(4-Methylpiperazin-1-yl)-6-{2-[(6-pyrrolidin-1-ylpyridin-3-yl)acetyl]-1,2,3,4-tetrahydroisoquinolin-7-yl}pyrimidin-2-amine] | 0.045
6 | COc1ccc(C#N)c(Oc2cccc(CC(NC(=O)c3ccc4c(N5CCN(C)CC5)nc(N)nc4c3)C(=O)N(C)C)c2)c1 (stereo not shown) [Example 170, 2-Amino-N-[1-[3-(2-cyano-5-methoxyphenoxy)benzyl]-2-(dimethylamino)-2-oxoethyl]-4-(4-methylpiperazin-1-yl)quinazoline-7-carboxamide] | 0.023
7 | CC(C)OC(=O)N1CCC(CC(=O)N2CCc3ccc(-c4cc(N5CCN(C)CC5)nc(N)n4)cc3C2)C1 (stereo not shown) [Example 119, Isopropyl 3-{2-[7-[2-amino-6-(4-methylpiperazin-1-yl)pyrimidin-4-yl]-3,4-dihydroisoquinolin-2(1H)-yl]-2-oxoethyl}pyrrolidine-1-carboxylate] | 0.07
8 | CN1CCN(c2cc(-c3cc4c(cc3F)CCN(C(=O)NC3CCCCC3)C4)nc(N)n2)CC1 [Example 76, 7-[2-Amino-6-(4-methylpiperazin-1-yl)pyrimidin-4-yl]-N-cyclohexyl-6-fluoro-3,4-dihydroisoquinoline-2(1H)-carboxamide] | 0.077
9 | CN1CCN(c2cc(-c3ccc4c(c3)CN(C(=O)Nc3cccc(Cl)c3F)CC4)nc(N)n2)CC1 [Example 40, 7-[2-Amino-6-(4-methylpiperazin-1-yl)pyrimidin-4-yl]-N-(3-chloro-2-fluorophenyl)-3,4-dihydroisoquinoline-2(1H)-carboxamide] | 0.016
10 | CCOC(=O)[C@H](CCc1ccccc1)NC(=O)c1ccc2c(N3CCN(C)CC3)nc(N)nc2c1 [Example 130, Ethyl (2S)-2-({[2-amino-4-(4-methylpiperazin-1-yl)quinazolin-7-yl]carbonyl}amino)-4-phenylbutanoate] | 0.071
11 | CN1CCN(c2nc(N)nc3cc(C(=O)NC(Cc4cccc(Oc5cc(Cl)cc(Cl)c5)c4)C(=O)N(C)C)ccc23)CC1 (stereo not shown) [Example 167, 2-Amino-N-[1-[3-(3,5-dichlorophenoxy)benzyl]-2-(dimethylamino)-2-oxoethyl]-4-(4-methylpiperazin-1-yl)quinazoline-7-carboxamide] | 0.015
12 | CN1CCN(c2cc(-c3ccc4c(c3)CN(C(=O)NC3CCC(C(F)(F)F)CC3)CC4)nc(N)n2)CC1 (stereo not shown) [Example 64, 7-[2-Amino-6-(4-methylpiperazin-1-yl)pyrimidin-4-yl]-N-[4-(trifluoromethyl)cyclohexyl]-3,4-dihydroisoquinoline-2(1H)-carboxamide] | 0.043
13 | CC(Oc1cccc(CNC(=O)c2ccc3c(N4CCN(C)CC4)nc(N)nc3c2)c1)c1cccc(C(F)(F)F)c1 (stereo not shown) [Example 196, 2-Amino-4-(4-methylpiperazin-1-yl)-N-(3-{1-[3-(trifluoromethyl)phenyl]ethoxy}benzyl)quinazoline-7-carboxamide] | 0.0044
14 | CN1CCN(c2cc(-c3ccc4c(c3)CN(C(=O)CC(C)(C)C#N)CC4)nc(N)n2)CC1 [Example 121, 4-[7-[2-Amino-6-(4-methylpiperazin-1-yl)pyrimidin-4-yl]-3,4-dihydroisoquinolin-2(1H)-yl]-2,2-dimethyl-4-oxobutanenitrile] | 0.039
15 | COc1ccc(C#N)c(Oc2cccc(CNC(=O)c3ccc4c(N5CCN(C)CC5)nc(N)nc4c3)c2)c1 [Example 180, 2-Amino-N-[3-(2-cyano-5-methoxyphenoxy)benzyl]-4-(4-methylpiperazin-1-yl)quinazoline-7-carboxamide] | 0.025
16 | CCOC(=O)c1cccnc1Oc1cccc(CNC(=O)c2ccc3c(N4CCN(C)CC4)nc(N)nc3c2)c1 [Example 184, Ethyl 2-{3-[({[2-amino-4-(4-methylpiperazin-1-yl)quinazolin-7-yl]carbonyl}amino)methyl]phenoxy}nicotinate] | 0.043

Row | Compound | IC50 [µM]
17 | COc1cc(COc2cccc(CNC(=O)c3ccc4c(N5CCN(C)CC5)nc(N)nc4c3)c2)cc(OC)c1 [Example 194, 2-Amino-N-{3-[(3,5-dimethoxybenzyl)oxy]benzyl}-4-(4-methylpiperazin-1-yl)quinazoline-7-carboxamide] | 0.0087
18 | CN1CCN(c2cc(-c3ccc4c(c3)CN(C(=O)NC3CCCCC3)CC4)nc(N)n2)CC1 [Example 95, 7-[2-Amino-6-(4-methylpiperazin-1-yl)pyrimidin-4-yl]-N-cyclohexyl-3,4-dihydroisoquinoline-2(1H)-carboxamide] | 0.024
19 | CN1CCN(c2nc(N)nc3cc(C(=O)NCCc4ccccc4)ccc23)CC1 [Example 37, 2-Amino-4-(4-methylpiperazin-1-yl)-N-(2-phenylethyl)quinazoline-7-carboxamide] | 0.129
20 | CN1CCN(c2cc(-c3ccc4c(c3)CN(C(=O)Nc3ccc(Oc5ccccc5)cc3)CC4)nc(N)n2)CC1 [Example 96, 7-[2-Amino-6-(4-methylpiperazin-1-yl)pyrimidin-4-yl]-N-(4-phenoxyphenyl)-3,4-dihydroisoquinoline-2(1H)-carboxamide] | 0.052
21 | CN1CCN(c2cc(-c3ccc4c(c3)CN(C(=O)CC(C)(C#N)C3CC3)CC4)nc(N)n2)CC1 (stereo not shown) [Example 123, 4-[7-[2-Amino-6-(4-methylpiperazin-1-yl)pyrimidin-4-yl]-3,4-dihydroisoquinolin-2(1H)-yl]-2-cyclopropyl-2-methyl-4-oxobutanenitrile] | 0.105
22 | CC(NC(=O)c1ccc2c(N3CCN(C)CC3)nc(N)nc2c1)c1cccc(Oc2ncccc2C#N)c1 (stereo not shown) [Example 199, 2-Amino-N-(1-{3-[(3-cyanopyridin-2-yl)oxy]phenyl}ethyl)-4-(4-methylpiperazin-1-yl)quinazoline-7-carboxamide] | 0.063
23 | CN1CCN(c2cc(-c3ccc4c(c3)CN(C(=O)Nc3nccs3)CC4)nc(N)n2)CC1 [Example 88, 7-[2-Amino-6-(4-methylpiperazin-1-yl)pyrimidin-4-yl]-N-1,3-thiazol-2-yl-3,4-dihydroisoquinoline-2(1H)-carboxamide] | 0.135
24 | CN1CCN(c2nc(N)nc3cc(C(=O)NC4CCCc5ccc(OCc6ccc(C#N)cc6)cc54)ccc23)CC1 (stereo not shown) [Example 205, 2-Amino-N-(7-(4-cyanobenzyloxy)-1,2,3,4-tetrahydronaphthalen-1-yl)-4-(4-methylpiperazin-1-yl)quinazoline-7-carboxamide] | 0.011
25 | CN1CCN(c2cc(-c3ccc4c(c3)CN(C(=O)CC3CCC3)CC4)nc(N)n2)CC1 [Example 109, 4-[2-(Cyclobutylacetyl)-1,2,3,4-tetrahydroisoquinolin-7-yl]-6-(4-methylpiperazin-1-yl)pyrimidin-2-amine] | 0.0096
26 | CCOC(=O)[C@@H]1CCCC[C@@H]1NC(=O)N1CCc2ccc(-c3cc(N4CCN(C)CC4)nc(N)n3)cc2C1 (relative stereo) [Example 53, Ethyl cis-2-({[7-[2-amino-6-(4-methylpiperazin-1-yl)pyrimidin-4-yl]-3,4-dihydroisoquinolin-2(1H)-yl]carbonyl}amino)cyclohexanecarboxylate] | 0.107
27 | COc1cccc(COc2cccc3c2CCN(C(=O)c2ccc4c(N5CCN(C)CC5)nc(N)nc4c2)C3)c1 [Example 208, (2-Amino-4-(4-methylpiperazin-1-yl)quinazolin-7-yl)(5-(3-methoxybenzyloxy)-3,4-dihydroisoquinolin-2(1H)-yl)methanone] | 0.024
28 | CN1CCN(c2nc(N)nc3cc(C(=O)NC(Cc4cccc(OCc5cccc(C#N)c5)c4)C(=O)N(C)C)ccc23)CC1 (stereo not shown) [Example 175, 2-Amino-N-[1-{3-[(3-cyanobenzyl)oxy]benzyl}-2-(dimethylamino)-2-oxoethyl]-4-(4-methylpiperazin-1-yl)quinazoline-7-carboxamide] | 0.018
29 | CN1CCN(c2cc(-c3ccc4c(c3)CN(C(=O)Nc3ccccc3)CC4)nc(N)n2)CC1 [Example 12, 7-[2-Amino-6-(4-methylpiperazin-1-yl)pyrimidin-4-yl]-N-phenyl-3,4-dihydroisoquinoline-2(1H)-carboxamide] | 0.0234
30 | CN1CCN(c2nc(N)nc3cc(C(=O)NC(C#N)c4ccccc4)ccc23)CC1 (stereo not shown) [Example 129, 2-Amino-N-[cyano(phenyl)methyl]-4-(4-methylpiperazin-1-yl)quinazoline-7-carboxamide] | 0.156
31 | CN1CCN(c2nc(N)nc3cc(C(=O)NCc4ccc(Cl)c(Cl)c4)ccc23)CC1 [Example 131, 2-Amino-N-(3,4-dichlorobenzyl)-4-(4-methylpiperazin-1-yl)quinazoline-7-carboxamide] | 0.017
